We go through one compound from ChEMBL document CHEMBL5523744, “Recent Advances in Targeted Cancer Therapy: Are PDCs the Next Generation of ADCs?” (J Med Chem, 2024).

The subject of the assay is DNA. Put plainly: Induction of DNA (unknown origin) minor groove alkylation. In kind it is nucleic-acid assay, Homo sapiens.

Turning to `CC(C)(C)OC(=O)Nc1ccc(C(=O)Nc2ccc3cc(C(=O)N4C[C@@H](CCl)c5c4cc(O)c4ccccc54)[nH]c3c2)cc1`, the IC50 was 0.04 nM. In other words, the picomolar range.
